Measurements from ChEMBL document CHEMBL1201862, “PubChem BioAssay data set” (2004).
Active and inactive are the calls of the source.

Assays:
H4 = assay: Luminescence Cell-Based Dose Response HTS to Identify Activators of 5'UTR Stem-Loop Driven Prion Protein mRNA Translation in H4 Neuroglioblastoma Cells. [Related pubchem assays: 1829 (Project Summary), 1814 (Primary HTS)]; type: functional; details: Homo sapiens
[1] = Luminescence Cell-Based Dose Response HTS to Identify Activators of Luciferase Translation or Activity in H4 […] Cells. [Related pubchem assays: 1829 (Project Summary), 1814 (Primary HTS)]; type: functional
[2] = molecular target: T1, Rac GTPase-activating protein 1 (Homo sapiens, UniProt Q9H0H5); assay: blockers of MgcRacGAP-driven Rac1 GTP hydrolysis – biochemical, ADP Hunter fluorescence, primary and confirmatory, confirmation (AID 624330); type: functional
T1 sequence (Q9H0H5 whole entry): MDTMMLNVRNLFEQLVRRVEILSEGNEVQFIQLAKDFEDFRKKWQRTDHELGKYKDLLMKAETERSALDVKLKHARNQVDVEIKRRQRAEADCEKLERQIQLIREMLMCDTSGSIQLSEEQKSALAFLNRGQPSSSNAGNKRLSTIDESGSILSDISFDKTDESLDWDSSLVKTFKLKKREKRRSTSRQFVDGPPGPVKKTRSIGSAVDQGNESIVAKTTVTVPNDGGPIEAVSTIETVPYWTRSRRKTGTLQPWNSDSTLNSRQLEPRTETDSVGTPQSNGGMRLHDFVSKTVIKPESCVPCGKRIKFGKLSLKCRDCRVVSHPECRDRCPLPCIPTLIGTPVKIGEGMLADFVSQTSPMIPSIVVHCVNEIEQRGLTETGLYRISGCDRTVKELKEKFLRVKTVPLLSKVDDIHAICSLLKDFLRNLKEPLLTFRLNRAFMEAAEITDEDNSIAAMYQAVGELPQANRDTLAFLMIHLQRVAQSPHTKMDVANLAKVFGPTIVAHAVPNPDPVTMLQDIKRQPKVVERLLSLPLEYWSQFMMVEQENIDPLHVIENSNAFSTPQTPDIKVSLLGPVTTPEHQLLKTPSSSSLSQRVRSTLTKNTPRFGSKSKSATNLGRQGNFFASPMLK

Large T antigen = Large T antigen (Simian virus 40, UniProt P03070); type: functional, Betapolyomavirus macacae;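 also: Confirmatory-stage PubChem screen for compounds that inhibit SV40 T antigen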
Streptokinase A = molecular target: T2, Streptokinase A (Streptococcus pyogenes serotype M1, UniProt P10520); assay: viability-normalized secreted streptokinase activity reduction – plasminogen activation absorbance, OD405, dose response (AID 1914); type: functional, Streptococcus pyogenes M1 GAS;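 also: secreted streptokinase activity via plasminogen activation per viability signal from cell pellet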
T2 sequence (P10520 whole entry): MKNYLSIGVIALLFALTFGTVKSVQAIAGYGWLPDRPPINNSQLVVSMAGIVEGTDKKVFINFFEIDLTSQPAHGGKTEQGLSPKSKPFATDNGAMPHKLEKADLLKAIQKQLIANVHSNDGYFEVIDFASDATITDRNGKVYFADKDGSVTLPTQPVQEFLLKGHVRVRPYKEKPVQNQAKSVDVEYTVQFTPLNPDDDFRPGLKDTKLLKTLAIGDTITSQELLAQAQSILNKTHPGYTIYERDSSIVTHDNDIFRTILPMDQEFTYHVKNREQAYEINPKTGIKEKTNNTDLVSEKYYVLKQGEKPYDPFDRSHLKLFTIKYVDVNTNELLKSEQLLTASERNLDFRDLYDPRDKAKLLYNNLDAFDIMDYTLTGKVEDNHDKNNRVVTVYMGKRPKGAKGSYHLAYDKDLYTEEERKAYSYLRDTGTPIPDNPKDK

Streptococcus = assay: GAS UMAA2166 growth inhibition – luminescence, BacTiterGlo, counter-screen for streptokinase expression inhibitor project, dose response (AID 1915); type: functional, organism-based;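 also: potency for reduction of bacterial viability or growth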
[3] = tested on: Streptococcus sp. 'group A'; assay: Streptococcus pyogenes SK(-)GAS viability under kanamycin – luminescence, BacTiterGlo, confirmation, counter-screen for streptokinase expression inhibitor project, dose response (AID 1900); type: functional, organism-based
[4] = molecular target: T3, Corticotropin-releasing factor receptor 2/Corticotropin-releasing factor-binding protein (Homo sapiens, UniProt P24387+Q13324); assay: activators of CRF receptor 2 with binding protein – uHTS hits, confirmation (AID 602473); type: functional; details: read-out: EC50_Mean
T3 sequence (Q13324 whole entry): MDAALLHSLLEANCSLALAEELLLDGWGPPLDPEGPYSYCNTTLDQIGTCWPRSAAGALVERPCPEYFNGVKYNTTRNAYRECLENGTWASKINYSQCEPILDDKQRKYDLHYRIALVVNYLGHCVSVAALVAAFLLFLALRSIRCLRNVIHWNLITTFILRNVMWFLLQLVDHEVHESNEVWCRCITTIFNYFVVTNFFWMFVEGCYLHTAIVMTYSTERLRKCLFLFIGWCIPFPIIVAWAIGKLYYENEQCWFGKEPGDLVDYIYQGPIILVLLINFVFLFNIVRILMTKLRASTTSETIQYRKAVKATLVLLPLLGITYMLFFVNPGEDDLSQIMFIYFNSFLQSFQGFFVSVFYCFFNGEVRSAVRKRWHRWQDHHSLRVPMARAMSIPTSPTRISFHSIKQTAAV
T3 sequence (P24387 whole entry): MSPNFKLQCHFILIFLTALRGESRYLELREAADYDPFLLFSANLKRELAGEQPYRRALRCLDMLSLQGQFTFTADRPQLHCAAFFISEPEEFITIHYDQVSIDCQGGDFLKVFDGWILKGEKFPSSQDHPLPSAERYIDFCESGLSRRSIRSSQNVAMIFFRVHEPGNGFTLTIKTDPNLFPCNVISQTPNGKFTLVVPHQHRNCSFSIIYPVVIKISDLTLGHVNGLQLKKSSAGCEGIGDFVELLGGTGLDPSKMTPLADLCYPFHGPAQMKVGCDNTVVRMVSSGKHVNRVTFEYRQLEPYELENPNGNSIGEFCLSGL

Nonstructural protein 1 = Nonstructural protein 1 (Influenza A virus, UniProt Q194T2); type: functional, Influenza A virus (A/California/07/2009(H1N1))
cells [5] = type: functional, cell-based
cells [6] = type: functional, cell-based; remark: listed apart in the source
[7] = P. falciparum Dd2 growth inhibitors, dose response, SYBR Green, cherry-picked samples (AID 1159567); type: functional, cell-based
Protein skinhead-1 = molecular target: T4, Protein skinhead-1 (Caenorhabditis elegans, UniProt P34707); type: functional
T4 sequence (P34707 whole entry): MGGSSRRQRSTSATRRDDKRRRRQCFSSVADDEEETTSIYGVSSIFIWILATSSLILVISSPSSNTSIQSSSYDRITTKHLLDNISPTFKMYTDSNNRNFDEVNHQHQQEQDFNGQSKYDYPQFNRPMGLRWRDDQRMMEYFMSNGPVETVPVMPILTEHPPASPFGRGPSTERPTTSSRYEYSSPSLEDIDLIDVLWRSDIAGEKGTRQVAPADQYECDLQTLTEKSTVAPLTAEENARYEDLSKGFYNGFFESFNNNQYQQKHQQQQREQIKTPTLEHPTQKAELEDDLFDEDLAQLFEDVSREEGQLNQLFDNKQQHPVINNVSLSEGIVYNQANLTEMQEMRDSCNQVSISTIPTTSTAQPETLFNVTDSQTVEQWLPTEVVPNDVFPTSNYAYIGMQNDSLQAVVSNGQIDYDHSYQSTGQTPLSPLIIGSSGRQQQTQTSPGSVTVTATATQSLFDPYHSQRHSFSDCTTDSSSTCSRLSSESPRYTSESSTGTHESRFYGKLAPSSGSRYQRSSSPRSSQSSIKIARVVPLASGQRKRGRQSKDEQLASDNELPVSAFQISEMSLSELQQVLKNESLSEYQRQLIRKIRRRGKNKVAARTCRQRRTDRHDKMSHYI

Paired box protein Pax-8 = Paired box protein Pax-8 (Homo sapiens, UniProt Q06710); assay: PAX8 transcriptional activity inhibition in RMG-I – RMG-I cells, luciferase, cherry-pick, dose response (AID 687027); type: functional, cell-based;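 also: luciferase reporter driven by Pax8 target thyroperoxidase promoter measured by SteadyGlo luminescence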
[8] = viability of uninfected HEp-2 cells – cell-based, HTS, cytotoxicity control for RSV inhibitor project, dose response (AID 2410); type: functional; details: human respiratory syncytial virus
Genome polyprotein = Genome polyprotein (dengue virus type 2, UniProt P29990); assay: flavivirus cap methylation enzyme inhibition – biochemical, confirmation dose response, primary screen (AID 588689); type: functional
INS1 = assay: INS-1E survival protection against cytokine death – cell-based, luminescence, retest, dose response (AID 449756); type: functional; details: Rattus norvegicus;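 also: cell death triggered by IL-1 beta plus TNF-alpha plus IFN-gamma mixture; protective hits raise ATP signal compared with cytokine alone wells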
[9] = viability of PTEN-deleted HCT116 cells – cell-based, HCT116 PTEN knockout, dose response (AID 1047); type: functional;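 also: HCT116 colon tumor cells with PTEN knocked out; cells exposed to compound for 60 hours before readout; potency for loss of cell viability measured by luminescence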
[10] = viability of HCT116 lacking mutant beta-catenin – cell-based, human colon tumor, dose response (AID 1045); type: functional;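 also: HCT116 colon tumor cells with beta catenin knocked out; cells exposed to compound for 60 hours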
[11] = molecular target: FAD-linked sulfhydryl oxidase ALR (Homo sapiens, UniProt P55789); assay: ALR-catalysed DTT oxidation blockers – biochemical, H2O2 detection, luminescence, cherry-pick, dose response (AID 493248)
[12] = non-specific 3'UTR reporter inhibition in Clone20-Shn3RL – cell-based, Renilla luciferase, cherry-picked, counter-screen for Shn3 inhibitor project, dose response (AID 624133); type: functional

Chain of Nonstructural protein 1 (Q194T2 whole entry): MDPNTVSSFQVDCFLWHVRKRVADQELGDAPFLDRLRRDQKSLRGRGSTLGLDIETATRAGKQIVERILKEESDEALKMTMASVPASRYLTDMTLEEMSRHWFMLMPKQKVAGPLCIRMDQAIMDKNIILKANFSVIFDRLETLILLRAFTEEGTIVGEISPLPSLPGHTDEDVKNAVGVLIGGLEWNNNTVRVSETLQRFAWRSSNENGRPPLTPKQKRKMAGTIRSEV
Chain of Genome polyprotein (P29990 2492-3391 limits assumed): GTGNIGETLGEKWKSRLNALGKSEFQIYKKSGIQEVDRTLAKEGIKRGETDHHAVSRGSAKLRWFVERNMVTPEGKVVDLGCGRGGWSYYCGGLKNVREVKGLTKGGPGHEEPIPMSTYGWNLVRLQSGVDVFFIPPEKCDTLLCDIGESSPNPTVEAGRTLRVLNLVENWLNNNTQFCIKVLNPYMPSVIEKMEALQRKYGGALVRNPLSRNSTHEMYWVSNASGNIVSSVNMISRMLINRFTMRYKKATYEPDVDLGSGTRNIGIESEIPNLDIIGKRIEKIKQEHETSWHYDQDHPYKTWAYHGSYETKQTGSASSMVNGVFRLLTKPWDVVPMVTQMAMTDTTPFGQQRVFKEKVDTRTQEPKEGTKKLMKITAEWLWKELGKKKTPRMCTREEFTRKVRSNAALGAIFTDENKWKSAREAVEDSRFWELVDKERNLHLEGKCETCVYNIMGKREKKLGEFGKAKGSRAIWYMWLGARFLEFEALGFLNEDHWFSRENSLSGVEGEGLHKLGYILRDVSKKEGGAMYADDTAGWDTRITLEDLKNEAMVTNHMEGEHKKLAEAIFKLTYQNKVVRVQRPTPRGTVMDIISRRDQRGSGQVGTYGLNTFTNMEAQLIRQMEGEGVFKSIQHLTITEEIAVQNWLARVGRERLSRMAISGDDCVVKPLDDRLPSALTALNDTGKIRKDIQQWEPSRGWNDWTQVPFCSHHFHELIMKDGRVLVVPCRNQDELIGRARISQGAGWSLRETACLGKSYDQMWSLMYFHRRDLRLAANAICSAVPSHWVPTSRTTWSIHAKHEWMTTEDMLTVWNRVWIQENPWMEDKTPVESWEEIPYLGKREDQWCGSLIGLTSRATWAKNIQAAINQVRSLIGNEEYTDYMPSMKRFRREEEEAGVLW
Chain of Large T antigen (P03070 whole entry): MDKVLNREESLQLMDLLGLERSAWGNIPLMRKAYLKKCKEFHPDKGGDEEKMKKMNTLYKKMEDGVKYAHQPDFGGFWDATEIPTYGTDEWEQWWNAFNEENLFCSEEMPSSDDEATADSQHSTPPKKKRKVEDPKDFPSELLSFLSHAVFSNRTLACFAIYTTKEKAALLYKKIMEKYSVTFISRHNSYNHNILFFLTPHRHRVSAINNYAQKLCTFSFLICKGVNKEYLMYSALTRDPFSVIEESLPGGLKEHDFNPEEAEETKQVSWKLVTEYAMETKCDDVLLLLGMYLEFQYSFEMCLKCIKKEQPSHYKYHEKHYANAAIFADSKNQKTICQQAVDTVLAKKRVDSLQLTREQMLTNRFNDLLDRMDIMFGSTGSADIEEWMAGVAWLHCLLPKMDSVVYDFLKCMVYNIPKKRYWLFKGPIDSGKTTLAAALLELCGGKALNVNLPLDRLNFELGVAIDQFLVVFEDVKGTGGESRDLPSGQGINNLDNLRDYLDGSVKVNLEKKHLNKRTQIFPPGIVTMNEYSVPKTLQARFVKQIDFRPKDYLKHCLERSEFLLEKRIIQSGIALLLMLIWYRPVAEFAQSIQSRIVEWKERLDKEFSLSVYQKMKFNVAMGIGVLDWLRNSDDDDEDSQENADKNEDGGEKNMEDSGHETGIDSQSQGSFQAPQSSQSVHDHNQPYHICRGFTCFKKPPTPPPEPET
Chain of FAD-linked sulfhydryl oxidase ALR (P55789 whole entry): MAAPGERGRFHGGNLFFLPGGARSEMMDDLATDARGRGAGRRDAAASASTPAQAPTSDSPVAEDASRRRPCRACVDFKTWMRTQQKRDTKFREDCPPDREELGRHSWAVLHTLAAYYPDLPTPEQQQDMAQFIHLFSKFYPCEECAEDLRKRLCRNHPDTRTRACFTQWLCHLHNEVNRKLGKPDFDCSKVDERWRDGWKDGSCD
Chain of Paired box protein Pax-8 (Q06710 whole entry): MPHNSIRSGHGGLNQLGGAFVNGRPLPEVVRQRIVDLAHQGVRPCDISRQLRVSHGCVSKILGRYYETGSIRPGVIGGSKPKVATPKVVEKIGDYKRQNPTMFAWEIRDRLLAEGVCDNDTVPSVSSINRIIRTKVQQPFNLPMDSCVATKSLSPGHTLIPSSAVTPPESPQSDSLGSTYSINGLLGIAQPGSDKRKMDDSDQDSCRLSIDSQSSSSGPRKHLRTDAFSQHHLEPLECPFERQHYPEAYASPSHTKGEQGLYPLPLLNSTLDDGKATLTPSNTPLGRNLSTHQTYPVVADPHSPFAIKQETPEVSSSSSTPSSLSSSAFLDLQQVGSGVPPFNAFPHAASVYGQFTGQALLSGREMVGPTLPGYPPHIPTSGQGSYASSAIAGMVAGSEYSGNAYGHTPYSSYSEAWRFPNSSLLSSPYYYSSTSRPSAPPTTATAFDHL

## O=C(Nc1ccc(Cl)c(Cl)c1)c1ccc(Cn2cc(Cl)cn2)cc1
H4
  EC50: > 120 µM (not active)
[1]
  EC50: 38.1 µM (active)

## N/C(=N\[N+](=O)[O-])N/N=C/c1ccc(O)cc1
[2]
  IC50: 20.4 µM (active)
Large T antigen
  IC50: > 100 µM (active)

## CC1=C(C(=O)O)N2C(=O)C(NC(=O)Cc3ccccc3)C2SC1 (stereo not drawn)
Streptokinase A
  EC50: > 150 µM (not active)
Streptococcus
  EC50: 2.68 µM (active)
[3]
  EC50: 1.22 µM (active)

## CCCCCCc1cc2cc(C(=O)NC)c(=N)oc2cc1O
[4]
  EC50: 3.06 µM (active)

## Oc1ccccc1C=NCCN1CCN(CCN=Cc2ccccc2O)C1c1ccccc1O (stereo not drawn)
Nonstructural protein 1
  IC50: 1.75 µM (active)

## Cc1ccc(-c2nnn(CC(=O)N(Cc3cccs3)C(C(=O)NC3CCCCC3)c3ccco3)n2)o1 (stereo not drawn)
Cells [5]
  EC50: > 350 µM (not active)
Cells [6]
  EC50: > 350 µM (not active)

## Cc1cc(C=C(C#N)C#N)ccc1N1CCCC1
[4]
  EC50: 6.3 µM (active)

## CC1=NN(c2ccccc2)C(=O)/C1=C\c1sccc1C
Nonstructural protein 1
  IC50: > 100 µM (active)

## COc1ccc2c3c([nH]c2c1)[C@@H](CO)N(C(=O)C1CCCCC1)CC31CCN(Cc2nccs2)CC1
[7]
  AC50: 4.44 µM (active)

## CC/C(=N\NC(=O)CCC(=O)NCc1ccccc1)c1ccc(O)cc1
Large T antigen
  IC50: 34.6 µM (active)

## CS(=O)(=O)c1ccc2nc(NC(=O)C3CC3)sc2c1
Cells [5]
  EC50: > 350 µM (not active)
Cells [6]
  EC50: > 350 µM (not active)

## COc1ccc(-c2ccc3c(c2)[C@H]2[C@H](CCN2Cc2ccncc2)[C@@H](CO)N3)cc1
[7]
  AC50: 7.26 µM (active)

## CCOc1ccccc1NC(=O)CSc1ncnc2c1oc1ccccc12
Cells [5]
  EC50: > 350 µM (not active)
Protein skinhead-1
  IC50: > 100 µM (inactive)
Cells [6]
  EC50: > 350 µM (not active)

## O=C(Nc1ccc(F)cc1)N1CCCCN2[C@@H](CO)[C@@H](c3ccc(-c4cccc(F)c4)cc3)[C@@H]2C1
Paired box protein Pax-8
  AC50: 21.3 µM (active)

## CC(=O)Nc1ccccc1O
Large T antigen
  IC50: 6.2 µM (active)

## COc1ccc(C#Cc2ccc3c(c2)[C@@H]2[C@@H](CCN2C(=O)C2CC2)[C@H](CO)N3)cc1
[7]
  AC50: 5.56 µM (active)

## CCc1c(C)nc(N)nc1N1N=C1SC(C(C)=O)C(C)=O
[2]
  IC50: 12.5 µM (active)
Large T antigen
  IC50: 95.9 µM (active)

## C=CCN1C(=O)/C(=C/c2ccc(O)cc2)S/C1=N/c1nccs1
[8]
  CC50: 22.4 µM (active)
[4]
  EC50: > 53 µM (inactive)

## Cc1ccsc1C(=O)N/N=C/c1ccc([N+](=O)[O-])cc1
Cells [5]
  EC50: 5.99 µM (active)
Cells [6]
  EC50: > 350 µM (not active)

## Cc1noc(NS(=O)(=O)c2ccc(NC(=O)c3ccccc3NS(=O)(=O)c3ccc(F)c(F)c3)cc2)c1C
Genome polyprotein
  IC50: 33.2 µM (active)

## CN1/C(=C\C(=S)NC(=O)c2ccccc2Cl)C(C)(C)c2ccccc21
Nonstructural protein 1
  IC50: 29.3 µM (active)
INS1
  AC50: 8.03 µM (active)

## O=C1NN(c2cccc(Br)c2)C(=O)/C1=C\c1ccc(O)cc1
Genome polyprotein
  IC50: > 100 µM (active)
Large T antigen
  IC50: 17.2 µM (active)

## COc1ccc2c3c(n(C)c2c1)[C@@H](CO)N(Cc1ccccc1F)CC31CCN(CC2CC2)CC1
[7]
  AC50: 2.61 µM (active)

## O=C(Oc1ccc(-c2cnc3ccccc3n2)cc1)c1ccc(Cl)c([N+](=O)[O-])c1
Streptokinase A
  EC50: > 150 µM (not active)
[8]
  CC50: 25.1 µM (active)
Streptococcus
  EC50: 114 µM (active)
[9]
  EC50: 48.9 µM (active)
[10]
  EC50: 34.6 µM (active)
[3]
  EC50: 11.5 µM (active)

## COc1ccc(NC2CCCN(C(=O)c3c(C)noc3C)C2)cc1 (stereo not drawn)
Large T antigen
  IC50: 24 µM (active)
[11]
  AC50: 3.46 µM (active)

## COc1ccc2nc(NC3=NCCN3)sc2c1
H4
  EC50: 2.01 µM (active)
[1]
  EC50: 0.778 µM (active)

## O=C1NC(=O)C(=Cc2coc3ccc(O)cc3c2=O)C(=O)N1
[2]
  IC50: 150 µM (active)
Genome polyprotein
  IC50: > 100 µM (active)

## COc1ccc(N=Nc2c(N)n[nH]c2N)cc1
Large T antigen
  IC50: 12 µM (active)
[11]
  AC50: 17 µM (active)

## COc1ccc(S(=O)(=O)NCCC(=O)OCC(=O)NC2CC2)cc1
[12]
  AC50: 33.7 µM (active)

## COc1cc(/C=C2/C(=O)NN(c3ccc(F)cc3)C2=O)cc([N+](=O)[O-])c1O
Genome polyprotein
  IC50: > 100 µM (active)

## CCC(Oc1ccccc1)C(=O)Nc1ccccc1N1CCCCC1 (stereo not drawn)
Streptokinase A
  EC50: 15.8 µM (active)
Streptococcus
  EC50: 19.9 µM (active)
[3]
  EC50: 10.3 µM (active)

## COc1cc(C2c3cc4c(c(O)c3CC3COC(=O)C32)OCO4)cc(OC)c1OC (stereo not drawn)
Paired box protein Pax-8
  AC50: < 0.26 µM (active)

## O=C(NNC(=O)c1ccccc1Br)c1ccc(Cl)cc1
Cells [5]
  EC50: > 350 µM (not active)
Cells [6]
  EC50: > 350 µM (not active)
